How the values were obtained:
Test in all cases: biochemical
D3 = D3 (Homo sapiens (Human), UniProt P35462)
D4 = D4 (Homo sapiens (Human), UniProt P21917)
H1 = H1 (Homo sapiens (Human), UniProt P35367)
5-HT2A = 5-HT2A (Homo sapiens (Human), UniProt P28223)
Alpha1B = Alpha1B (Homo sapiens (Human), UniProt P35368)
Alpha2C = Alpha2C (Homo sapiens (Human), UniProt P18825)
M2 = M2 (Homo sapiens (Human), UniProt P08172)
M3 = M3 (Homo sapiens (Human), UniProt P20309)
M4 = M4 (Homo sapiens (Human), UniProt P08173)
M5 = M5 (Homo sapiens (Human), UniProt P08912)
5-HT2B = 5-HT2B (Homo sapiens (Human), UniProt P41595)
Alpha1D = Alpha1D (Homo sapiens (Human), UniProt P25100)
KOR = KOR (Homo sapiens (Human), UniProt P41145)
5-HT2C = 5-HT2C (Homo sapiens (Human), UniProt P28335)
Alpha2A = Alpha2A (Homo sapiens (Human), UniProt P08913)
Alpha2B = Alpha2B (Homo sapiens (Human), UniProt P18089)
H2 = H2 (Homo sapiens (Human), UniProt P25021)

SMILES | Ki (D3) [nM] | Ki (D4) [nM] | Ki (H1) [nM] | Ki (5-HT2A) [nM] | Ki (Alpha1B) [nM] | Ki (Alpha2C) [nM] | Ki (M2) [µM] | Ki (M3) [nM] | Ki (M4) [nM] | Ki (M5) [nM] | Ki (5-HT2B) [nM] | Ki (Alpha1D) [µM] | Ki (KOR) [nM] | Ki (5-HT2C) [nM] | Ki (Alpha2A) [nM] | Ki (Alpha2B) [µM] | Ki (H2) [nM]
Clc1cc(Cl)cc(CN2CCc3ccc(N4CCOCC4)cc3C2)c1 | 3230 | 973 | 1330 | – | – | – | – | – | – | – | – | – | – | – | – | – | –
C=CCN1CCN(c2ccc3c(c2)CN(S(=O)(=O)c2cc(Cl)cc(Cl)c2)C3)CC1 | 220 | – | – | 513 | 1390 | 168 | 4.2 | 710 | 1890 | 1290 | – | – | – | – | – | – | –
C=CCN1CCN(c2ccc3c(c2)CN(S(=O)(=O)c2cc(Cl)cc(Cl)c2)CC3)CC1 | 107 | – | 241 | – | – | – | – | 1950 | – | 3580 | 397 | 3.5 | 2200 | – | – | – | –
CN1CCN(c2ccc3c(c2)CN(S(=O)(=O)c2cc(Cl)cc(Cl)c2)CC3)CC1 | 271 | – | 4780 | – | – | – | 1.65 | 2020 | 2280 | 2320 | 206 | – | 2560 | 1080 | – | – | –
Clc1cc(Cl)cc(CN2Cc3ccc(N4CCOCC4)cc3C2)c1 | – | – | – | – | – | 4540 | – | – | – | – | 702 | – | – | 1380 | 2340 | 6.8 | 1180
CN1CCN(c2ccc3c(c2)CN(S(=O)(=O)c2cc(Cl)cc(Cl)c2)C3)CC1 | 599 | – | 487 | 520 | – | – | 3.89 | 1960 | 3510 | 2090 | – | 6.47 | 8490 | 833 | – | – | –

— patent US10954217B2 (priority 2016, dated 2021)
